# Laboratory results from patent US6649654B1, “Methods for identifying and using IKK inhibitors” (The Regents of the University of California, priority 1999, dated 2003).
# What was measured:
# JNK1 = target: T1, JNK1 (Homo sapiens, UniProt P45983); experiment: In vitro JNK1 kinase activity; format: biochemical; conditions: in vitro incubation with up to 60 μM
# T1 construct: Endogenous IKK, HA-tagged IKKα, endogenous JNK1, and p38 activities were determined; endogenous in cells
# Procedure: Cell lysates were incubated with anti-IKKα (Pharmingen), anti-HA (12CA5; Pharmingen), anti-JNK1 (333.8; Pharmingen), or anti-p38 (New England Biolabs) for 2 hours. Then, 15 μl protein A-Sepharose (Sigma) were added and the mixture was allowed to incubate for 1 hour. After extensive washing, kinase assays were performed as known in the art (See e.g., DiDonato et al., Nature 388:548-554 [1997]). Endogenous IKK, HA-tagged IKKα, endogenous JNK1, and p38 activities were determined with GST-1κBα(1-54), GST-c-Jun(1-79), and GST-ATF2 as substrates.
# Endogenous IKK was immunoprecipitated from TNFα-stimulated HeLa cells and the kinase activity determined in the presence of different concentrations of PGA1 (the results of which are shown in FIG. 2B) or 15dPGJ2 (the results of which are shown in FIG. 2C).
# [1] = target: T2, peroxisome proliferator-activated receptor-γ (PPAR-γ) (Homo sapiens, UniProt P37231); conditions: Ricote et al.; Jiang et al.; cited from earlier work
# T2 sequence (P37231 1-505): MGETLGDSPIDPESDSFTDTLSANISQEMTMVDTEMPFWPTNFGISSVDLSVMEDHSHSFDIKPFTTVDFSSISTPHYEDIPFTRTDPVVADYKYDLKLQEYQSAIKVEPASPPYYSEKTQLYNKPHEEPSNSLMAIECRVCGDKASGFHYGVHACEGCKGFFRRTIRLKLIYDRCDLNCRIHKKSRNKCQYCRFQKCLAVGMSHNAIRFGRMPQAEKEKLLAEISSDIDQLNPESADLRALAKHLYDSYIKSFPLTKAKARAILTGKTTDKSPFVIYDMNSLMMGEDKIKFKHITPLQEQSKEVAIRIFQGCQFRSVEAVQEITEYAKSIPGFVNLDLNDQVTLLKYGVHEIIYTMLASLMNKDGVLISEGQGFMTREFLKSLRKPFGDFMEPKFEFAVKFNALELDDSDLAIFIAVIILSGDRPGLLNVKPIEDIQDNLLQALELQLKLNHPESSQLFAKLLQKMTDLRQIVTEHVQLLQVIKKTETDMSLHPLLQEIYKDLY
# IKK = IKK (Homo sapiens, UniProt O14920+O15111); experiment: MEKK1-induced IKK activity in Jurkat cells; format: cell-based; conditions: data not shown
# Procedure: (§1) Cells used in the experiments described herein were cultured in either RPMI 1640 (Jurkat cells) or DMEM (HeLa and COS cells), supplemented with 10% FBS and antibiotics. Cells were stimulated with either 25 ng/ml TPA, 20 ng/ml recombinant TNFα, or 10 ng/ml interleukin 1β (Sigma). PGA1, 15dPGJ2, T×B2, LTB4, AA and other PGs (Cayman) dissolved in ethanol were used as well, as known in the art (See e.g., Rossi et al., 94:746-750 [1997]). Controls received equal amounts of ethanol. Transfections were performed using Lipofectamine Plus (GIBCO) for HeLa and COS cells and DEAE-dextran (Sigma) for Jurkat cells. Xpress-tagged NIK, Xpress-tagged MEKK1, HA-tagged IKKα, and HA-tagged IKKβ were also used (See e.g., Zandi et al., Science 281:1360-1363 [1998]; and Delhase et al., Science 284:309-313 [1999]). COX2 and cPLA2 expression vectors were obtained from Dr. L. Feng (See also, Hirose et al., J. Am. Soc. Nephrol., 9:408-416 [1998]). PGD synthase was cloned from HT29 colon carcinoma cell line cDNA by PCR and subcloned into a pCDNA3 vector. […]
# (§2) Cell lysates were incubated with anti-IKKα (Pharmingen), anti-HA (12CA5; Pharmingen), anti-JNK1 (333.8; Pharmingen), or anti-p38 (New England Biolabs) for 2 hours. […] Endogenous IKK, HA-tagged IKKα, endogenous JNK1, and p38 activities were determined with GST-1κBα(1-54), GST-c-Jun(1-79), and GST-ATF2 as substrates.
# JNK = JNK (Homo sapiens, UniProt P45983); experiment: JNK activation in TPA-stimulated Jurkat cells; format: cell-based; design: endogenous in cells; host or cells: Jurkat; conditions: 24 μM PGA1, TPA
# Procedure: as §1
# as §2, with “substrates. […]” for “substrates.”
# NF-κB = NF-κB activation by EMSA in Jurkat cells stimulated with TNFα or TPA; format: cell-based, human
# Procedure: as §1, with “vector. Cells were lysed in buffer B (50 mM Tris-HCl, pH 7.5, 400 mM NaCl, 1 mM EDTA, 1 mM EGTA, 1% Triton, 0.5% NP-40, 10% glycerol, and supplemented with 20 mM β-glycerophosphate, 10 mM PNPP, […] 1 mM PMSF, 20 μg/ml aprotinin, 2.5 μg/ml leupeptin, 8.3 μg/ml bestatin, 1.7 μg/ml pepstatin, and 2 mM DTT).” for “vector.”
# Sequence of IKK (O14920 whole entry): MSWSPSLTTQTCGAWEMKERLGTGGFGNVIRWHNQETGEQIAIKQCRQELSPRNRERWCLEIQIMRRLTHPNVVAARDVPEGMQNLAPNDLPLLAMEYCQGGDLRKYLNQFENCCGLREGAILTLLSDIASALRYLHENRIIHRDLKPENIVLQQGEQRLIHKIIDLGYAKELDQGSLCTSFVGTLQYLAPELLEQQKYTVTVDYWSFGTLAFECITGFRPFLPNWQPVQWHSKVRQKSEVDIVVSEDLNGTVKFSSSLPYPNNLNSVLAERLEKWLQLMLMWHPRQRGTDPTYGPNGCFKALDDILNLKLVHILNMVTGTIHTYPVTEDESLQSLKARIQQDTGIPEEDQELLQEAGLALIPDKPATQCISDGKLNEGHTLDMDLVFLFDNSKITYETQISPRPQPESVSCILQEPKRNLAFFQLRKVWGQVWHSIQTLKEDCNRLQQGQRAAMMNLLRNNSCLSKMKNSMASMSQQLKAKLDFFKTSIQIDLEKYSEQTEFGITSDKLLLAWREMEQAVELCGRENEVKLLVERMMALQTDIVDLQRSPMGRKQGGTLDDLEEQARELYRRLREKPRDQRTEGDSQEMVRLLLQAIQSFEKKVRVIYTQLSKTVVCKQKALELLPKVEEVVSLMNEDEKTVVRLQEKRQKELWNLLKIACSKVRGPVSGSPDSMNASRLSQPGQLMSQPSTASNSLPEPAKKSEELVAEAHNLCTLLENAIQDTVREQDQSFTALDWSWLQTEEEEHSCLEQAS
# Sequence of IKK (O15111 whole entry): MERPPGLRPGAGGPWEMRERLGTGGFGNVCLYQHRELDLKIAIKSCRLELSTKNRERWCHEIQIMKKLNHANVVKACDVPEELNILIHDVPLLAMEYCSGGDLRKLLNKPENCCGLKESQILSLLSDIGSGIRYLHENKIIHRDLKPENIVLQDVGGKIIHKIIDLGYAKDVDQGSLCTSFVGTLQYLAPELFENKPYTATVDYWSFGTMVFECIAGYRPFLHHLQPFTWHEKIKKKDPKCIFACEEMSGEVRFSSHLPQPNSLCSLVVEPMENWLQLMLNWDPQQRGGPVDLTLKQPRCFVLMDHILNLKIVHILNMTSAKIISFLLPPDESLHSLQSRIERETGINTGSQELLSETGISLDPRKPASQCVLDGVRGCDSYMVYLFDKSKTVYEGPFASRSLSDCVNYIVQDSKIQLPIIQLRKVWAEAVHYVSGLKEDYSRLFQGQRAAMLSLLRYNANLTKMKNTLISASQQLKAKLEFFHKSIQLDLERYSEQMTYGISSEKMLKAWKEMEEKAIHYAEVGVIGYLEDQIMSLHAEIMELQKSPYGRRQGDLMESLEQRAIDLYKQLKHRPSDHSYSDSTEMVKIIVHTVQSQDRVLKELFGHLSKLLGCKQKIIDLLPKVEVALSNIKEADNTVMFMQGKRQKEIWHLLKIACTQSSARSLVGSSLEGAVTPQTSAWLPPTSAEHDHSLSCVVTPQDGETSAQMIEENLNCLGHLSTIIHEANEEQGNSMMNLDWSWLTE
# Sequence of IKK (Q9Y6K9 whole entry partner): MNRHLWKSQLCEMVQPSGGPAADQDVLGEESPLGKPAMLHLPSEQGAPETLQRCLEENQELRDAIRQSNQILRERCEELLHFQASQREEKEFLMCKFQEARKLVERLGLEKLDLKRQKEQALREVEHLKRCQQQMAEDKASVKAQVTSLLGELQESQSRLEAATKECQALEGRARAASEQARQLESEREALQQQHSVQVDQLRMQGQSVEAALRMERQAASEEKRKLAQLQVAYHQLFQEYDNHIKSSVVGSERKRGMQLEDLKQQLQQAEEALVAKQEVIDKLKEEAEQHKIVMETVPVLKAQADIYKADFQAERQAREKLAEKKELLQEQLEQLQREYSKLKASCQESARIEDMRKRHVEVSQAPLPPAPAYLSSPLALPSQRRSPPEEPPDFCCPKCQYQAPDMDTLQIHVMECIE
# Sequence of JNK (P45983 whole entry): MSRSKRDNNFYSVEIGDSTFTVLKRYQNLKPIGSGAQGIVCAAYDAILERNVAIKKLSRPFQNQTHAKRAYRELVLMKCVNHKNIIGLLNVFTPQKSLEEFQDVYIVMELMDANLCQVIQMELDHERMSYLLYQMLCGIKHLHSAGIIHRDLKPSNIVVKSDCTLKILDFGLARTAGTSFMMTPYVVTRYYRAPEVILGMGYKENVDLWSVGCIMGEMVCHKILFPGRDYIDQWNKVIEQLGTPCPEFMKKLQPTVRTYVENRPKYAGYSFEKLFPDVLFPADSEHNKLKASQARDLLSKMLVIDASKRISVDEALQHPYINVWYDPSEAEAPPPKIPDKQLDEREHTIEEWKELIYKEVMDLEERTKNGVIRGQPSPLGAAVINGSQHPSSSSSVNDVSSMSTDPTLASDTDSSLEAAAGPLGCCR
# T1 sequence (P45983 whole entry): as above
inhibition of JNK1 activity in vitro (JNK1),effect on MEKK1-induced IKK activity (IKK),effect on activation of JNK (JNK),"IC50 (NF-κB; Homo sapiens, read-out: half-maximal inhibitory (IC50) concentration towards NF-κB)",Compound,activation of PPAR-γ [1],effect on NF-κB activation (NF-κB; TNFα or TPA)
No significant inhibition,,,,"CCCCC/C=C/C=C1/C(=O)C=C[C@@H]1C/C=C\CCCC(=O)O [15dPGJ2, 15-deoxy-Δ^12-14-PGJ2]",activate,
,inhibited,did not inhibit,12 µM,"CCCCC[C@H](O)/C=C/[C@H]1C=CC(=O)C1CCCCCCC(=O)O (stereo partly drawn) [PGA1, prostaglandin A1]",,prevented
